What was measured:
Assay in all cases: HPLC of itaconate, UV […] nm, Michaelis-Menten fit
Assay type in all cases: biochemical
[1] = target: T1, hACOD1 (Homo sapiens, UniProt A6NK06); settings: pH 7.0, 37 °C, 50 mM MOPS, 100 mM NaCl; 95% confidence interval in brackets; other pH 5.5-8.25 also in table
T1 construct: gene ACOD1; aa 4-461, recombinant from E. coli, clone CAD29, purified; homodimer
T1 sequence (A6NK06 4-461): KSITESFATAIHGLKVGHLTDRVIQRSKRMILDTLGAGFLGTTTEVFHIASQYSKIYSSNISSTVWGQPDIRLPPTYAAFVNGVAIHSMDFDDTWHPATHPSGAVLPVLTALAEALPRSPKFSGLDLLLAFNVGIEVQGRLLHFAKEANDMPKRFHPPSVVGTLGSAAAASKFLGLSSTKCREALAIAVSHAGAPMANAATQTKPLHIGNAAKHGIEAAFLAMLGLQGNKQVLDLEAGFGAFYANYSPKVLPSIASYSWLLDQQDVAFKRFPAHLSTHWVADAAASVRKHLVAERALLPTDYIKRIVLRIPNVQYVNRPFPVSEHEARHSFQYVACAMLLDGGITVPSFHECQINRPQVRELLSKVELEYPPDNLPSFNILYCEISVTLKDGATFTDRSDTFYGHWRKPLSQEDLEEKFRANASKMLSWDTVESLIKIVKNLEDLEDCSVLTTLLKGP

[2] = target: T2, aCAD (Aspergillus terreus, UniProt B3IUN8); settings: pH 7.0, 37 °C, 50 mM MOPS, 100 mM NaCl; 95% confidence interval in brackets; other pH 5.5-7.5 also in table
T2 construct: gene cad1; aa 12-490, recombinant from E. coli, clone CAD16 (by order of listing), purified; homodimer
T2 sequence (B3IUN8 12-490): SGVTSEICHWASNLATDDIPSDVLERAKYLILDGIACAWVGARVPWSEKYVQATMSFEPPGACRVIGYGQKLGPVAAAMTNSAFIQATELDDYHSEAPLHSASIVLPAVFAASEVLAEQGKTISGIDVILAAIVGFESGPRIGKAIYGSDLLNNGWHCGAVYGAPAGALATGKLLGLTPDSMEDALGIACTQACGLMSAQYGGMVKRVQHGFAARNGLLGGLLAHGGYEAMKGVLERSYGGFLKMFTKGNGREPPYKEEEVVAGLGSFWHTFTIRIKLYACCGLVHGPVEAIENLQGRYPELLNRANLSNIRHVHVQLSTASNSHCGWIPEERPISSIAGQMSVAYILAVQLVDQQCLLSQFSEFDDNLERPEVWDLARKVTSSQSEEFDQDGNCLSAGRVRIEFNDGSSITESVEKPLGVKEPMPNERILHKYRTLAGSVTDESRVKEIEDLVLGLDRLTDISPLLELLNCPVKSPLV

[3] = target: T3, mACOD1 (Mus musculus, UniProt P54987); settings: pH 7.0, 37 °C, 50 mM MOPS, 100 mM NaCl; 95% confidence interval in brackets; other pH 5.5-8.25 also in table
T3 construct: gene Acod1; aa 4-461, recombinant from E. coli, clone CAD39 (by order of listing), purified; homodimer
T3 sequence (P54987 4-461): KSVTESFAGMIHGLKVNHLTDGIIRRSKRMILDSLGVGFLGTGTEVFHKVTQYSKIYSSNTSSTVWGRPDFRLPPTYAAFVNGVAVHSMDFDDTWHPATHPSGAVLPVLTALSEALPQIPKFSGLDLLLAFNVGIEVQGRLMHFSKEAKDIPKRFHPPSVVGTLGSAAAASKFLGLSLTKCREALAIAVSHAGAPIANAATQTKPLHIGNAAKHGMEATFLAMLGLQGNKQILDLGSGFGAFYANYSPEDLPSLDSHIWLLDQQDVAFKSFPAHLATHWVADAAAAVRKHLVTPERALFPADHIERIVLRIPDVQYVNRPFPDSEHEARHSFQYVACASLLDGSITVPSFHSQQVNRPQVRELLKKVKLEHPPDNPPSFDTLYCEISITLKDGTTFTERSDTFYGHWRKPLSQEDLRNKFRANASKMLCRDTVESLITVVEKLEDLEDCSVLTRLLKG

Compound: O=C(O)/C=C(/CC(=O)O)C(=O)O [cis-aconitate]
- KM (95% confidence interval) (mM) / hACOD1 / kcat (95% confidence interval) (s^-1) / kcat/KM (M^-1 s^-1) [1]: 0.23 (0.21-0.26) mM
- KM (95% confidence interval) (mM) / aCAD / kcat (95% confidence interval) (s^-1) / kcat/KM (M^-1 s^-1) [2]: 2.1 (1.9-2.5) mM
- Michaelis constant (KM) [3]: 0.17 (0.15-0.19) mM

Source: paper PMC11814083, “Effect of pH and buffer on substrate binding and catalysis by cis-aconitate decarboxylase” (Scientific Reports, 2025)
